# Test results from US9115126B2, “1H-[1,2,3]triazolo[4,5-c]pyridine-4-carbonitrile derivatives” (Merck Sharp & Dohme B.V., priority 2010, dated 2015).
# Counter-ions that a name gives are not always drawn. Like-named read-outs stand apart in the source and are kept apart here.
# Biological target: recombinant human Cathepsin S (Homo sapiens (Human), UniProt P25774)
# Assay: Cathepsin S assay procedure (fluorogenic substrate Z-Val-Val-Arg-AMC)
# Assay type: biochemical
# Experimental: 25 μl of a 2 mg/l solution of activated recombinant human cathepsin S, in assay buffer, is then added to the well, yielding a final inhibitor concentration of 10 μM.
# Enzyme activity is determined by measuring the fluorescence of the liberated aminomethylcoumarin at […] using 390 nm excitation, at 20 minutes. Percentage enzyme activity is calculated by comparison of this activity to that of a solution containing no inhibitor.
# [1] = pH5.5, fluorescence at 20 minutes, read-out: Cat S activity IC50
# [2] = read-out: pIC50 (negative logarithm of the IC50 concentration) for inhibition of human cathepsin S (converted)
# Chain of recombinant human Cathepsin S (P25774 115-331): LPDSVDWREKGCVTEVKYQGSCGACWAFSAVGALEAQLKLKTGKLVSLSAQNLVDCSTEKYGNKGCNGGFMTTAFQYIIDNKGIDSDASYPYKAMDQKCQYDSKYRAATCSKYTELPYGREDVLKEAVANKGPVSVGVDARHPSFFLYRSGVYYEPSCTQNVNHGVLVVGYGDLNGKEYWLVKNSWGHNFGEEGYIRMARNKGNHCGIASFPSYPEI
Compound,IC50 [1],IC50 [2]
"Cc1cccc(N2CCC(CCOc3ccc(-c4cc5c(ncn5C)c(C#N)n4)cc3C(F)(F)F)CC2)n1 [EP 09150709.5 - Example 24c, reference compound]",0.026 µM,
"Cn1nnc2c(C#N)nc(-c3ccc(OCCCO)c(C(F)(F)F)c3)cc21 [Example 32, 6-(4-(3-hydroxypropoxy)-3-(trifluoromethyl)phenyl)-1-methyl-1H-[1,2,3]triazolo[4,5-c]pyridine-4-carbonitrile]",,< 0.01 µM
"Cn1nnc2c(C#N)nc(-c3ccc(OCCC4CCN(CC(N)=O)CC4)c(C(F)(F)F)c3)cc21 [Example 2c, 6-(4-(2-(1-(2-amino-2-oxoethyl)piperidin-4-yl)ethoxy)-3-(trifluoromethyl)phenyl)-1-methyl-1H-[1,2,3]triazolo[4,5-c]pyridine-4-carbonitrile]",,< 0.01 µM
"Cn1nnc2c(C#N)nc(-c3ccc(CCCO)c(C(F)(F)F)c3)cc21 [Example 44, 6-(4-(3-hydroxypropyl)-3-(trifluoromethyl)phenyl)-1-methyl-1H-[1,2,3]triazolo[4,5-c]pyridine-4-carbonitrile]",0.013 µM,
"COC(=O)[C@@H](O)CN1CCC(CCOc2ccc(-c3cc4c(nnn4C)c(C#N)n3)cc2C(F)(F)F)CC1 [Example 39, (S)-methyl 3-(4-(2-(4-(4-cyano-1-methyl-1H-[1,2,3]triazolo[4,5-c]pyridin-6-yl)-2-(trifluoromethyl)phenoxy)ethyl)piperidin-1-yl)-2-hydroxypropanoate]",,< 0.01 µM
"Cn1nnc2c(C#N)nc(-c3ccc(OCc4cc[n+]([O-])cc4)c(C(F)(F)F)c3)cc21 [Example 25, methyl-6-(4-(1-N-oxy-pyridin-4-ylmethoxy)-3-(trifluoromethyl)phenyl)-1H-[1,2,3]triazolo[4,5-c]pyridine-4-carbonitrile]",,< 0.01 µM
"Cn1nnc2c(C#N)nc(-c3ccc(OCc4ccncc4)c(C(F)(F)F)c3)cc21 [Example 24, 1-methyl-6-(4-(pyridin-4-ylmethoxy)-3-(trifluoromethyl)phenyl)-1H-[1,2,3]triazolo[4,5-c]pyridine-4-carbonitrile]",,< 0.01 µM
"Cn1nnc2c(C#N)nc(-c3ccc(OCCC4CCN(CCS(C)(=O)=O)CC4)c(C(F)(F)F)c3)cc21 [Example 19, 1-methyl-6-(4-(2-(1-(2-(methylsulfonyl)ethyl)piperidin-4-yl)ethoxy)-3-(trifluoromethyl)phenyl)-1H-[1,2,3]triazolo[4,5-d]pyridine-4-carbonitrile]",,< 0.01 µM
"Cn1nnc2c(C#N)nc(-c3ccc(OCCC4CNC4)c(C(F)(F)F)c3)cc21 [Example 30, 6-(4-(2-(azetidin-3-yl)ethoxy)-3-(trifluoromethyl)phenyl)-1-methyl-1H-[1,2,3]triazolo[4,5-d]pyridine-4-carbonitrile 2,2,2-trifluoroacetate]",,< 0.01 µM
"CN(C)CCCOc1ccc(-c2cc3c(nnn3C)c(C#N)n2)cc1C(F)(F)F [Example 35, 6-(4-(3-(dimethylamino)propoxy)-3-(trifluoromethyl)phenyl)-1-methyl-1H-[1,2,3]triazolo[4,5-c]pyridine-4-carbonitrile]",0.0033 µM,< 0.01 µM
"Cn1nnc2c(C#N)nc(-c3ccc(OCc4cccnc4)c(C(F)(F)F)c3)cc21 [Example 22, 1-methyl-6-(4-(pyridin-3-ylmethoxy)-3-(trifluoromethyl)phenyl)-1H-[1,2,3]triazolo[4,5-c]pyridine-4-carbonitrile]",,< 0.01 µM
"CN(C)C(=O)CN1CC(CCOc2ccc(-c3cc4c(nnn4C)c(C#N)n3)cc2C(F)(F)F)C1 [Example 31, 6-(4-(2-(1-(2-dimethylamino-2-oxoethyl)azetidin-3-yl)ethoxy)-3-(trifluoromethyl)phenyl)-1-methyl-1H-[1,2,3]triazolo[4,5-c]pyridine-4-carbonitrile Hydrochloride]",,< 0.01 µM
"Cn1cnc2c(C#N)nc(-c3ccc(CCCO)c(C(F)(F)F)c3)cc21 [WO 2009/010491, Example 15, reference compound]",0.234 µM,
"Cn1cnc2c(C#N)nc(-c3ccc(OCCC4CCNCC4)c(C(F)(F)F)c3)cc21 [WO 2009/010491, Example 14a, reference compound]",0.008 µM,
"Cn1nnc2c(C#N)nc(-c3cnc(OCCC4CCNCC4)c(C(F)(F)F)c3)cc21 [Example 26, 1-Methyl-6-(6-(2-(piperidin-4-yl)ethoxy)-5-(trifluoromethyl)pyridin-3-yl)-1H-[1,2,3]-triazolo[4,5-c]pyridine-4-carbonitrile trifluoroacetate]",,< 0.01 µM
"Cn1nnc2c(C#N)nc(-c3ccc(OCCC4CCN(C(=O)C5(N)CC5)CC4)c(C(F)(F)F)c3)cc21 [Example 29, 6-(4-(2-(1-(1-aminocyclopropanecarbonyl)piperidin-4-yl)ethoxy)-3-(trifluoromethyl)phenyl)-1-methyl-1H-[1,2,3]triazolo[4,5-d]pyridine-4-carbonitrile]",,< 0.01 µM
"CC(C)c1noc(COc2ccc(-c3cc4c(nnn4C)c(C#N)n3)cc2C(F)(F)F)n1 [Example 43, 6-(4-((3-isopropyl-1,2,4-oxadiazol-5-yl)methoxy)-3-(trifluoromethyl)phenyl)-1-methyl-1H-[1,2,3]triazolo[4,5-c]pyridine-4-carbonitrile]",,< 0.01 µM
"Cn1nnc2c(C#N)nc(-c3ccc(OCc4ccc[n+]([O-])c4)c(C(F)(F)F)c3)cc21 [Example 23, methyl-6-(4-(1-N-oxy-pyridin-3-ylmethoxy)-3-(trifluoromethyl)phenyl)-1H-[1,2,3]triazolo[4,5-c]pyridine-4-carbonitrile]",,< 0.01 µM
"Cn1nnc2c(C#N)nc(-c3ccc(OCCC4CCNCC4)c(C(F)(F)F)c3)cc21 [Example 1, 1-methyl-6-(4-(2-(piperidin-4-yl)ethoxy)-3-(trifluoromethyl)phenyl)-1H-[1,2,3]triazolo[4,5-c]pyridine-4-carbonitrile]",0.0008 µM,< 0.01 µM
"CNC(=O)CN1CCC(CCOc2ccc(-c3cc4c(nnn4C)c(C#N)n3)cc2C(F)(F)F)CC1 [Example 2b, 1-methyl-6-(4-(2-(1-(2-methylamino-2-oxoethyl)piperidin-4-yl)ethoxy)-3-(trifluoromethyl)phenyl)-1H-[1,2,3]triazolo[4,5-c]pyridine-4-carbonitrile TFA salt]",,< 0.01 µM

# Further lines, results first:
IC50 [1],IC50 [2],Compound
,< 0.01 µM,"Cn1nnc2c(C#N)nc(-c3ccc(OCCC4CCN(Cc5ncno5)CC4)c(C(F)(F)F)c3)cc21 [Example 3k, 6-(4-(2-(1-((1,2,4-oxadiazol-5-yl)methyl)piperidin-4-yl)ethoxy)-3-(trifluoromethyl)phenyl)-1-methyl-1H-[1,2,3]triazolo[4,5-c]pyridine-4-carbonitrile]"
,< 0.01 µM,"CN(CCCOc1ccc(-c2cc3c(nnn3C)c(C#N)n2)cc1C(F)(F)F)CC(=O)N(C)C [Example 36x, 2-((3-(4-(4-cyano-1-methyl-1H-[1,2,3]triazolo[4,5-c]pyridin-6-yl)-2-(trifluoro-methyl)phenoxy)propyl)(methyl)amino)-N,N-dimethylacetamide hydrochloride]"
,< 0.01 µM,"Cn1nnc2c(C#N)nc(-c3ccc(OCCCN4CCN(c5ccccn5)CC4)c(C(F)(F)F)c3)cc21 [Example 36w, 1-methyl-6-(4-(3-(4-(pyridin-2-yl)piperazin-1-yl)propoxy)-3-(trifluoromethyl)phenyl)-1H-[1,2,3]triazolo[4,5-c]pyridine-4-carbonitrile hydrochloride]"
,< 0.01 µM,"CNC(=O)CN1CCN(CCCOc2ccc(-c3cc4c(nnn4C)c(C#N)n3)cc2C(F)(F)F)CC1 [Example 36v, 2-(4-(3-(4-(4-cyano-1-methyl-1H-[1,2,3]triazolo[4,5-c]pyridin-6-yl)-2-(trifluoromethyl)phenoxy)propyl)piperazin-1-yl)-N-methylacetamide dihydrochloride]"
,< 0.01 µM,"CN(CCOc1ccc(-c2cc3c(nnn3C)c(C#N)n2)cc1C(F)(F)F)CC(=O)N(C)C [Example 37m, 2-((2-(4-(4-cyano-1-methyl-1H-[1,2,3]triazolo[4,5-c]pyridin-6-yl)-2-(trifluoromethyl)phenoxy)ethyl)(methyl)amino)-N,N-dimethylacetamide]"
,< 0.01 µM,"Cn1nnc2c(C#N)nc(-c3ccc(OCCN4CCNC(=O)C4)c(C(F)(F)F)c3)cc21 [Example 37r, 1-methyl-6-(4-(2-(3-oxopiperazin-1-yl)ethoxy)-3-(trifluoromethyl)phenyl)-1H-[1,2,3]triazolo[4,5-c]pyridine-4-carbonitrile]"
,< 0.01 µM,"Cc1ccc(N2CC[C@H](CCOc3ccc(-c4cc5c(nnn5C)c(C#N)n4)cc3C(F)(F)F)C2)nc1 [Example 9b, (R)-1-methyl-6-(4-(2-(1-(5-methylpyridin-2-yl)pyrrolidin-3-yl)ethoxy)-3-(trifluoromethyl)phenyl)-1H-[1,2,3]triazolo[4,5-c]pyridine-4-carbonitrile hydrochloride]"
,< 0.01 µM,"Cn1nnc2c(C#N)nc(-c3ccc(OCCCN4CCN(CC(C)(C)O)CC4)c(C(F)(F)F)c3)cc21 [Example 36u, 6-(4-(3-(4-(2-hydroxy-2-methylpropyl)piperazin-1-yl)propoxy)-3-(trifluoromethyl)phenyl)-1-methyl-1H-[1,2,3]triazolo[4,5-c]pyridine-4-carbonitrile dihydrochloride]"
,< 0.01 µM,"Cn1nnc2c(C#N)nc(-c3ccc(OCCC4CCN(c5ccccn5)CC4)c(C(F)(F)F)c3)cc21 [Example 4a, 1-methyl-6-(4-(2-(1-(pyridin-2-yl)piperidin-4-yl)ethoxy)-3-(trifluoromethyl)phenyl)-1H-[1,2,3]triazolo[4,5-c]pyridine-4-carbonitrile hydrochloride]"
,< 0.01 µM,"Cn1nnc2c(C#N)nc(-c3ccc(OCCN4CCN(CCO)CC4)c(C(F)(F)F)c3)cc21 [Example 37e, 6-(4-(2-(4-(2-hydroxyethyl)piperazin-1-yl)ethoxy)-3-(trifluoromethyl)phenyl)-1-methyl-1H-[1,2,3]triazolo[4,5-c]pyridine-4-carbonitrile]"
